Results as given in PubChem BioAssay (NCI).
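Grown in 96-well plates, cells were treated for 48 hours with each compound at five concentrations. Insufficient inhibition: endpoint recorded as highest concentration tested. The concentration for full growth arrest is given as TGI.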

Columns and labels:
Test in all cases: DTP human tumour cell line panel, 48 h
[1] = tested on: 786-0 renal
[2] = tested on: A498 renal
[3] = tested on: A549 NSCLC
[4] = tested on: ACHN renal
[5] = tested on: BT-549 breast
[6] = tested on: CAKI-1 renal
[7] = tested on: CCRF-CEM leukemia
[8] = tested on: COLO 205 colon
[9] = tested on: DU-145 prostate
[10] = tested on: EKVX NSCLC
[11] = tested on: HCC-2998 colon
[12] = tested on: HCT-116 colon
[13] = tested on: HL-60(TB) leukemia
[14] = tested on: HOP-62 NSCLC
[15] = tested on: HOP-92 NSCLC
[16] = tested on: HS 578T breast
[17] = tested on: HT29 colon
[18] = tested on: IGROV1 ovarian
[19] = tested on: K-562 leukemia
[20] = tested on: KM12 colon
[21] = tested on: M14 melanoma
[22] = tested on: MALME-3M melanoma
[23] = tested on: MCF7 breast
[24] = tested on: MDA-MB-231 breast
[25] = tested on: MDA-MB-435
[26] = tested on: MDA-N
[27] = tested on: MOLT-4 leukemia
[28] = tested on: NCI-H226 lung
[29] = tested on: NCI-H23 lung
[30] = tested on: NCI-H460 lung
[31] = tested on: NCI-H522 lung
[32] = tested on: OVCAR-3 ovarian
[33] = tested on: OVCAR-4 ovarian
[34] = tested on: OVCAR-5 ovarian
[35] = tested on: OVCAR-8 ovarian
[36] = tested on: PC-3 prostate
[37] = tested on: RXF 393 renal
[38] = tested on: SF-268 CNS
[39] = tested on: SF-295 CNS
[40] = tested on: SF-539 CNS
[41] = tested on: SK-MEL-28 melanoma
[42] = tested on: SK-MEL-5 melanoma
[43] = tested on: SK-OV-3 ovarian
[44] = tested on: SN12C renal
[45] = tested on: SNB-19 CNS
[46] = tested on: SNB-75 CNS
[47] = tested on: SR leukemia
[48] = tested on: SW-620 colon
[49] = tested on: T-47D breast
[50] = tested on: TK-10 renal
[51] = tested on: U251 CNS
[52] = tested on: UACC-257 melanoma
[53] = tested on: UACC-62 melanoma
[54] = tested on: UO-31 renal
[55] = tested on: HCT-15 colon
[56] = tested on: LOX IMVI melanoma
[57] = tested on: NCI/ADR-RES ovarian
[58] = tested on: RPMI-8226 leukemia

CC(=O)Oc1ccc2c(c1)CC[C@@H]1C2CC[C@]2(C)C(=O)NC(=O)CC12 (stereo not given in full)
TGI [1]: > 100 µM | TGI [2]: > 100 µM | TGI [3]: > 100 µM | TGI [4]: > 100 µM | TGI [5]: > 100 µM | TGI [6]: > 100 µM | TGI [7]: > 100 µM | TGI [8]: > 100 µM | TGI [9]: > 100 µM | TGI [10]: > 100 µM | TGI [11]: > 100 µM | TGI [12]: > 100 µM | TGI [13]: > 100 µM | TGI [14]: > 100 µM | TGI [15]: > 100 µM | TGI [16]: > 100 µM | TGI [17]: > 100 µM | TGI [18]: > 100 µM | TGI [19]: > 100 µM | TGI [20]: > 100 µM | TGI [21]: > 100 µM | TGI [22]: > 100 µM | TGI [23]: > 100 µM | TGI [24]: > 100 µM | TGI [25]: > 100 µM | TGI [26]: > 100 µM | TGI [27]: > 100 µM | TGI [28]: > 100 µM | TGI [29]: > 100 µM | TGI [30]: > 100 µM | TGI [31]: > 100 µM | TGI [32]: > 100 µM | TGI [33]: > 100 µM | TGI [34]: > 100 µM | TGI [35]: > 100 µM | TGI [36]: > 100 µM | TGI [37]: > 100 µM | TGI [38]: > 100 µM | TGI [39]: > 100 µM | TGI [40]: > 100 µM | TGI [41]: > 100 µM | TGI [42]: > 100 µM | TGI [43]: > 100 µM | TGI [44]: > 100 µM | TGI [45]: > 100 µM | TGI [46]: > 100 µM | TGI [47]: > 100 µM | TGI [48]: > 100 µM | TGI [49]: > 100 µM | TGI [50]: > 100 µM | TGI [51]: > 100 µM | TGI [52]: > 100 µM | TGI [53]: > 100 µM | TGI [54]: > 100 µM

CC(=O)/C(=C\c1ccc(Cl)c(Cl)c1)C(=O)C(C)CN(C)C (stereo not given)
TGI [1]: 8.96 µM | TGI [2]: 8.16 µM | TGI [3]: 35.7 µM | TGI [4]: 17.9 µM | TGI [5]: 8.92 µM | TGI [6]: 17.1 µM | TGI [7]: 0.116 µM | TGI [8]: 24.4 µM | TGI [9]: 17.3 µM | TGI [10]: 27.8 µM | TGI [11]: 9.66 µM | TGI [12]: 6.79 µM | TGI [55]: 10.1 µM | TGI [13]: 5.36 µM | TGI [14]: 41.1 µM | TGI [15]: 9.55 µM | TGI [17]: 24.1 µM | TGI [18]: 4.88 µM | TGI [20]: 5.35 µM | TGI [56]: 6.14 µM | TGI [21]: 24.2 µM | TGI [22]: 21.9 µM | TGI [23]: 22.4 µM | TGI [24]: 27.3 µM | TGI [25]: 12.3 µM | TGI [26]: 16.2 µM | TGI [27]: 6.6 µM | TGI [28]: 14.9 µM | TGI [29]: 30.6 µM | TGI [30]: 48.9 µM | TGI [57]: 72.5 µM | TGI [32]: 16.1 µM | TGI [34]: 23.8 µM | TGI [35]: 6.45 µM | TGI [36]: 17 µM | TGI [58]: 3.63 µM | TGI [38]: 23.4 µM | TGI [39]: 16.5 µM | TGI [40]: 13.4 µM | TGI [41]: 21 µM | TGI [42]: 25.3 µM | TGI [43]: 37.1 µM | TGI [44]: 20.6 µM | TGI [45]: 5.56 µM | TGI [47]: 5.21 µM | TGI [48]: 9.01 µM | TGI [49]: 12.3 µM | TGI [50]: 5.82 µM | TGI [51]: 12.9 µM | TGI [52]: 23.7 µM | TGI [54]: 14.5 µM
